The values that follow come from patent EP2845588A1, “PIN1 inhibitors for use in the prevention and/or treatment of theileriosis, and related applications” (Centre National de la Recherche Scientifique (CNRS), priority 2013, dated 2015).

Read-outs that look alike come from different tables or passages of the source.

Test [1] concerns the target T1, PIN1 (Homo sapiens, UniProt Q13526). The conditions noted are these: cited from earlier work.
In test [2] the target is T1, PIN1. Particulars: cited from earlier work; for IC50: read-out: PIN1 inhibition IC50.
Test [3] deals with non-parasitized BL3 cells. Briefly: Cell proliferation, live cell count after trypan blue exclusion, BL3. The class given is cell-based, bovine. Particulars: BL3 / uninfected cells. The protocol: All infected bovine cell lines used in this study were previously described: TBL3 cells were derived from in vitro infection of the spontaneous bovine-B lymphosarcoma cell line, BL3, with Hissar stock of T.annulata. The TpMD409 lymphocyte cell line are infected with T. parva. The culture conditions of these cell lines were previously described by Moreau et al., 1999. Cells were cultured in RPMI 1640 (Gibco-BRL, Paisley, UK), supplemented with 10% heat-inactivated Fetal calf serum, 4mM L-Glutamine, 25mM HEPES, 10µM β-mercaptoethanol and 100µg/ml penicillin/streptomycin in a humidified 5%CO2 atmosphere at 37°C. HepG2, NIH/3T3 and MEF cells lines were cultured in DMEM (Gibco-BRL, Paisley, UK), supplemented with 10% heat-inactivated Fetal calf serum, 4mM L-Glutamine, 25 mM HEPES, 10µM β-mercaptoethanol and 100µg/ml penicillin/streptomycin in a humidified 5% CO2 atmosphere at 37°C. Cell numbers, as judged by Trypan Blue exclusion test, were determined by counting cells using a Countess automated cell counter (Invitrogen, CA, USA). The anti-parasite drug Buparvaquone (BW720c) was used at 200ng/ml for 72 hours. BW720c has no effect on growth of uninfected cells.
Cells were treated with either Juglone at 5 µM resuspended in Ethanol (Sigma, St Louis, MO, Ref.: H47003), or PiB at 1 µM resuspended in DMSO (Sigma, Ref.: B7688), or Dimethyloxalylglycine DMOG at 0.5 mM resuspended in DMSO (Tebu-bio, MO, USA).

Test [4] concerns FBW7 and c-Jun mRNA in TBL3 cells. Nature of the test: RT-qPCR of FBW7 and c-Jun mRNA in TBL3 cells. Type of test: cell-based, bovine. The protocol:
Total cellular RNAs were extracted using an RNeasy Plus Mini Kit (Qiagen, Hilden, Germany) and parasite RNAs were extracted using the classical Trizol Protocol. cDNA synthesis was performed with the Reverse Transcriptase Superscript III (Invitrogen, CA, USA).
Quantitative PCR amplification was performed in the ABI 7500 machine (Applied Biosystems, CA, USA) using the Sybr Green reagent (Applied Biosystems, CA, USA) using the primers listed in Table 5 below. The detection of a single product was verified by dissociation curve analysis. Relative quantities of mRNA were analyzed using the delta Ct method. The βactin qPCR was used for normalization. Table 5: qPCR primers

T1 sequence (Q13526 whole entry): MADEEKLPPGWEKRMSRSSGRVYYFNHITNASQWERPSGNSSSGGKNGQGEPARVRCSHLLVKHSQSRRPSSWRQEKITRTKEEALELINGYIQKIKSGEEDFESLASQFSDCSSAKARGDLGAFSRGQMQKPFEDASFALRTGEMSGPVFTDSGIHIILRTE

Take Ac-Phe-Phe-pSer-Ψ[(Z)CHdC]-Pro-Arg-NH2: on PIN1 [1] (read-out: PIN1 inhibition IC50), the concentration for half-maximal inhibition (IC50) (in general, the concentration needed to halve the response being measured) was 1.3 µM. For the same compound, on PIN1 [1] (read-out: PIN1 inhibition Kis), the Ki was 1.74 µM. On to `CCOC(=O)CN1C(=O)c2cccc3cccc(c23)C1=O` [Ethyl (1,3-dioxo-1H-benzo[de]isoquinolin-2(3H)-yl)acetate], for which, on PIN1 [2], the IC50 is 5 µM. In the case of `CN1C(=O)c2ccc3c4c(ccc(c24)C1=O)C(=O)N(C)C3=O` [2,7-Dimethylbenzo[Imn][3,8]phenanthroline-1,3,6,8(2H,7H)-tetrone], at PIN1 [2], the 50% inhibitory concentration (IC50) was 2 µM. With `S=C(SC(=S)N1CCCCC1)N1CCCCC1` [1-Piperidinecarbodithioic acid, anhydrosulfide], the 50% inhibitory concentration (IC50) at PIN1 [2] was 4.1 µM. For the compound `O=C1Nc2ccc([N+](=O)[O-])cc2/C1=C1/Nc2ccccc2/C1=N/O` [(3Z)-3-[(3Z)-3-hydroxyiminoindolin-2-ylidene]-5-nitro-indolin-2-one], on PIN1 [2] (cell prints neither Ki nor IC50), the “PIN1 inhibition (Ki and/or IC50)” value is 0.5 to 2.5 µM.

In the case of `CCOC(=O)CN1C(=O)c2ccc3c4ccc5c6c(ccc(c7ccc(c2c37)C1=O)c64)C(=O)N(CC(=O)OCC)C5=O` [Diethyl 2,2'-(1,3,8,10-tetraoxo-1,3,8,10-tetrahydroisoquinolino[4 ',5',6':6,5,10]anthra[2,1,9-def]isoquinoline-2,9-diyl)diacetate], the 50% inhibitory concentration (IC50) on PIN1 [2] was 1.5 µM.

In the case of `O=C1C=CC(=O)c2c(O)cccc21` [Juglone, 5-Hydroxy-1,4-naphthlenedione], the “proliferation of non-parasitized cells” value in test [3] is listed as “no effect”. Moreover, the mRNA expression entry in test [4] is given as “no effect”. On to “Ac-Lys(N-biotinoyl)-Ala-Ala-Bth-D-Thr(PO3H2)-Pip-Nal-Gln-NH2”, for which the Ki at PIN1 [1] (read-out: PIN1 inhibition Ki) is 0.0012 µM. On to CRYPEVEIC, for which the Ki with PIN1 [1] (read-out: PIN1 inhibition Ki) is 0.52 µM.
